Measured values reported in patent US20220089540A1 (Board of Trustees of Michigan State University, priority 2019, published 2022).
Values joined by “and” are separate entries in the source; they are usually repeats but may differ in a detail not shown here. Identical values can stand only once. Like-named read-outs stand apart in the source and are kept apart here.

Key:
[1] = system: SREBP; assay: SREBP induction in human liver (HepG2) cells, RT-PCR; type: cell-based; settings: for fold induction at 0.3 µM: human, HepG2 cells (human liver carcinoma), read-out: Safety SREBP mRNA fold induction at 300 nM; for SREBP activation: fold induction compared to DMSO, several values per cell, Table 6
Description: The SREBP transcription factor is involved in triglyceride synthesis, and its activation correlates with increased triglycerides in vivo. […] Lower numbers indicate better safety. […] Lower numbers indicate better safety. Also, for Table 6, SREBP activation was measured as fold induction compared to DMSO, where a lower value indicates the compound is an improvement over a control.

[2] = system: inducible nitric oxide synthase (iNOS); assay: iNOS suppression / NO assay in LPS-stimulated macrophages or RAW264.7 cells (Griess reaction); type: cell-based, mouse; settings: Mus musculus; for IC50: RAW264.7, Table 7
Description: Macrophages or RAW264.7 like-cells were treated with various concentrations of rexinoids and stimulated with lipopolysaccaride (LPS) to activate inducible nitric oxide synthase (iNOS) to produce nitric oxide. This in vitro iNOS assay was rapid, reproducible, quantitative and predictive. Nitric oxide is implicated in the apoptosis of cancer cells via regulation of RXRs. There is a tight correlation between the % reduction of iNOS and efficacy in preclinical lung cancer models. Lower numbers indicate higher efficacy.
RAW264.7 cells were incubated with 300 nM rexinoids and stimulated with 1-2 ng/ml lipopolysaccaride (LPS) for 24 hours to activate inducible nitric oxide synthase (iNOS) to produce nitric oxide. Nitric oxide released into the media was measured by the Griess reaction.
Also, for Table 6, the iNOS suppression is the percent of the LPS-stimulated control where the compounds were measured at 100 nM or 300 nM.
Macrophages or RAW264.7 cells were treated with various concentrations of rexinoids listed in Table 7 and stimulated with lipopolysaccaride (LPS) to activate inducible nitric oxide synthase (iNOS) to produce nitric oxide. Nitric oxide (NO) is implicated in the apoptosis of cancer cells via regulation of RXRs. There is a tight correlation between the % reduction of iNOS and efficacy in preclinical lung cancer models. The in vitro iNOS assay is rapid, reproducible, quantitative and predictive, as NO production is measured in culture medium using the Griess reaction. Values are either presented as % inhibition or IC50 values.

[3] = RAW264.7, 24 h, at 300 nM, percent of the LPS-stimulated control, lower is better, Table 6, read-out: iNOS suppression
[4] = RAW264.7, 24 h, read-out: iNOS (300 nM)

SMILES | fold induction at 0.3 µM ([1]; 300 nM, HepG2, Table 5) | IC50 [2] [nM] | further results
CC(C)CN(c1cc(C(C)(C)C)cc(C(C)(C)C)c1)c1ncc(C(=O)O)cn1 | 2.46 ± 0.5 | – | –
CC(C)(C)c1cc(N(CC2CC2)c2ncc(C(=O)O)cn2)cc(C(C)(C)C)c1 | 1.46 ± 0.2 | – | –
CC(C)N(c1cc(C(C)(C)C)cc(C(C)(C)C)c1)c1ccc(C(=O)O)cn1 | 1.65 ± 0.1 | – | –
Cc1ccc(C(C)(C)C)cc1N(CC(C)C)c1ccc(C(=O)O)cn1 | 4.93 ± 2.7 | – | –
CC(C)N(c1cc(C(C)(C)C)cc(C(C)(C)C)c1)c1ncc(C(=O)O)cn1 | 2.46 ± 0.8 | – | –
CC(C)CN(c1cc(C(F)(F)F)cc(C(F)(F)F)c1)c1ccc(C(=O)O)cn1 | 1 ± 0.03 | – | –
Cc1ccc(C(C)(C)C)cc1N(c1ccc(C(=O)O)cn1)C(C)C | 0.98 ± 0.06 | – | –
CCCN(c1cc(C(C)(C)C)cc(C(C)(C)C)c1)c1ncc(C(=O)O)cn1 | 1.25 ± 0.1 | – | –
CCCN(c1ccc(C(=O)O)cn1)c1cc(C(C)(C)C)ccc1C | 1.8 ± 0.2 | – | –
C=C(c1ccc(C(=O)O)cc1)c1cc2c(cc1C)CCCC2(C)C | – | – | activity at 0.3 µM [2, 3]: 55%; SREBP activation [1]: 2.0 fold induction
CCCCN(c1ccc(C(=O)O)cn1)c1cc(C(C)(C)C)cc2c1CCC2(C)C | – | 100 to 200 | –
CCCN(c1ccc(C(=O)O)cn1)c1cc(C(C)(C)C)cc2c1CCC2(C)C | – | 100 to 200 | –
CC(C)CN(c1ccc(C(=O)O)cn1)c1cc(C(C)(C)C)cc2c1CCC2(C)C | – | 100 to 200 | –
CC(C)(C)c1cc(N(CC2CC2)c2ccc(C(=O)O)cn2)c2c(c1)C(C)(C)CC2 | – | 100 to 200 | –
CC(C)CN(c1ncc(C(=O)O)cn1)c1cc(C(C)(C)C)cc2c1CCC2(C)C | – | 300 to 600 | –
CC(C)(C)c1cc(N(CC2CC2)c2ncc(C(=O)O)cn2)c2c(c1)C(C)(C)CC2 | – | 200 to 300 | –
CCCCN(c1ncc(C(=O)O)cn1)c1cc(C(C)(C)C)cc2c1CCC2(C)C | – | 300 to 600 | –
CCCN(c1ncc(C(=O)O)cn1)c1cc(C(C)(C)C)cc2c1CCC2(C)C | – | 300 to 600 | –
CC(C)N(c1ncc(C(=O)O)cn1)c1cc(C(C)(C)C)cc2c1CCC2(C)C | – | 300 to 600 | –
Cc1cc(N(CC(C)C)c2ccc(C(=O)O)cn2)cc(C(F)(F)F)c1 | – | 300 to 600 | –
Cc1ccc(N(CC2CC2)c2ccc(C(=O)O)cn2)cc1C(F)(F)F | – | 300 to 600 | –
Cc1ccc(N(c2ccc(C(=O)O)cn2)C(C)C)cc1C(F)(F)F | – | 300 to 600 | –
CC(C)N(c1cc(C(F)(F)F)cc(C(F)(F)F)c1)c1ncc(C(=O)O)cn1 | – | 100 to 200 | –
CC(C)N(c1ccc(C(=O)O)cn1)c1cc(C(C)(C)C)cc2c1CCC2(C)C [6-[(6-tert-butyl-1,1-dimethyl-2,3-dihydro-1H-inden-4-yl)(propan-2-yl)amino]pyridine-3-carboxylic Acid] | – | 100 to 200 | –
Cc1ccc(N(CC(C)C)c2ccc(C(=O)O)cn2)cc1C(F)(F)F [6-{[4-methyl-3-(trifluoromethyl)phenyl](2-methylpropyl)amino}pyridine-3-carboxylic Acid] | – | 300 to 600 | –
CCCN(c1ccc(C)c(C(F)(F)F)c1)c1ccc(C(=O)O)cn1 [6-{[4-methyl-3-(trifluoromethyl)phenyl](propyl)amino}pyridine-3-carboxylic Acid] | – | 300 to 600 | –
C=C(c1ccc(C(=O)O)cc1)c1cc(C(C)C)c(OC(C)C)cc1C [Compound 1, 4-{1-[2-methyl-5-(propan-2-yl)-4-(propan-2-yloxy)phenyl]ethenyl}benzoic Acid] | – | – | activity at 0.3 µM [2, 4]: 41%

SMILES | fold induction at 0.3 µM ([1]; 300 nM, HepG2, Table 5) | IC50 [2] [nM] | further results
C=C(c1ccc(C(=O)O)cc1)c1cc(C(C)C)c(OCC)cc1C [Compound 2, 4-{1-[4-ethoxy-2-methyl-5-(propan-2-yl)phenyl]ethenyl}benzoic Acid] | – | – | activity at 0.3 µM ([2]; 300 nM, RAW264.7, 1-2 ng/ml LPS, 24 hours, Table 3, read-out: iNOS (300 nM)): 45%
C=C(c1ccc(C(=O)O)cc1)c1cc(C(C)(C)C)ccc1OCC [Compound 4, 4-[1-(5-tert-butyl-2-ethoxyphenyl)ethenyl]benzoic Acid] | – | – | activity at 0.3 µM [2, 4]: 65%
C=C(c1ccc(C(=O)O)cc1)c1ccc(OCC(C)C)c(C(C)C)c1 [Compound 5, 4-{1-[3-iso-propyl-4-(2-methylpropoxy)phenyl]ethenyl}benzoic Acid] | – | – | activity at 0.3 µM [2, 4]: 65%
C=C(c1ncc(C(=O)O)cn1)c1cc2c(cc1C)C(C)(C)CCC2(C)C [Pyrimidine Bexarotene, reference compound] | – | – | Safety SREBP mRNA fold induction at 300 nM ([1]; 300 nM, HepG2, Table 5): 1.19 ± .1 fold
C=C(c1ccc(C(=O)O)cc1)c1cc2c(cc1C)C(C)(C)CCC2(C)C [drawing 61] | 2.23 ± 0.5 | – | –
Cc1cc2c(cc1C1(c3ncc(C(=O)O)cn3)CC1)C(C)(C)CCC2(C)C [drawing 63] | 1.17 ± 0.1 | – | –
CCN(c1ccc(C(=O)O)cc1)c1cc(C(C)(C)C)cc(C(C)(C)C)c1 [drawing 64] | 1.37 ± 0.3 | – | –
CCN(c1cc(C(C)(C)C)cc(C(C)(C)C)c1)c1ccc(C(=O)O)cn1 [drawing 65] | 2.62 ± 0.7 | – | –
CCN(c1cc(C(C)(C)C)cc(C(C)(C)C)c1)c1ncc(C(=O)O)cn1 [drawing 66] | 1.38 ± 0.4 | – | –
CCOc1c(N(CC)c2ccc(C(=O)O)cc2)cc(C(C)(C)C)cc1C(C)(C)C [drawing 67] | 1.59 ± 0.2 | – | –
CC(C)(C)c1cc(-n2c(C(F)(F)F)nc3cc(C(=O)O)ccc32)cc(C(C)(C)C)c1 [drawing 69] | 1.58 ± 0.2 | – | –
C=C(c1ccc(C(=O)O)cc1)c1cc(C(C)C)c(OCC(C)C)cc1C [drawing 71] | 1.67 ± 0.2 | – | –
CCN(c1ccc(C(=O)O)cn1)c1cc(C(C)(C)C)ccc1C [drawing 72] | 1.59 ± 0.5 | – | –
C=C(c1ccc(C(=O)O)cc1)c1cc(C(C)C)c(OC(C)C)cc1C [drawing 74] | 1.08 ± 0.1 | – | –
C=C(c1ccc(C(=O)O)cc1)c1cc(C(C)(C)C)cc(C(C)(C)C)c1 [drawing 76] | 1.12 ± 0.5 | – | –
CCCN(c1cc(C(C)(C)C)cc(C(C)(C)C)c1)c1ccc(C(=O)O)cn1 [drawing 77] | 2.15 ± 0.7 | – | –
CC(C)(C)c1cc(N(CC2CC2)c2ccc(C(=O)O)cn2)cc(C(C)(C)C)c1 [drawing 78] | 2.48 ± 1.8 | – | –
CCN(c1cc(C(F)(F)F)cc(C(F)(F)F)c1)c1ccc(C(=O)O)cn1 [drawing 79] | 0.96 ± 0.5 | – | –
CCN(c1ccc(C(=O)O)cc1)c1cc(C(C)C)c(OCC(C)C)cc1C [drawing 80] | 1.45 ± 0.2 | – | –
CCN(c1ccc(C(=O)O)cc1)c1cc(C(C)(C)C)c(OC)c(C(C)(C)C)c1 [drawing 81] | 1.63 ± 0.3 | – | –
CC(C)CN(c1cc(C(C)(C)C)cc(C(C)(C)C)c1)c1ccc(C(=O)O)cn1 [drawing 82] | 1.49 ± 0.6 | – | –
CCCCN(c1cc(C(C)(C)C)cc(C(C)(C)C)c1)c1ccc(C(=O)O)cn1 [drawing 83] | 5.6 ± 3.6 | – | –
CC(C)(C)c1cc(N(Cc2ccccc2)c2ccc(C(=O)O)cn2)cc(C(C)(C)C)c1 [drawing 93] | 1.94 ± 0.04 | – | –
CCOc1c(N(CC)c2ccc(C(=O)O)cc2)cc(C(C)(C)C)cc1C(C)(C)C [drawing 107] | – | – | activity at 0.3 µM [2, 3]: 60%; SREBP activation [1]: 2.4 fold induction
CC(C)CN(c1cc(C(C)(C)C)cc(C(C)(C)C)c1)c1ccc(C(=O)O)cn1 [drawing 122] | – | – | SREBP activation [1]: 1.7 fold induction and 2.0 fold induction
CCCCN(c1cc(C(C)(C)C)cc(C(C)(C)C)c1)c1ccc(C(=O)O)cn1 [drawing 123] | – | – | SREBP activation [1]: 5.3 fold induction
CC(C)(C)c1cc(N(Cc2ccccc2)c2ccc(C(=O)O)cn2)cc(C(C)(C)C)c1 [drawing 195, 6-[benzyl(3,5-di-tert-butylphenyl)amino]pyridine-3-carboxylic Acid] | – | 300 to 600 | –
